Measurements from patent US20260297129A1, “PEPTIDES AS SELECTIVE IL-23 RECEPTOR INHIBITORS” (SANOFI, priority 2023, published 2026).
Like-named read-outs stand apart in the source and are kept apart here. Numbered stars: 1 amine (or outer) side, 2 acyl side, 3 side chain; on linkers, the order of the positions; unused ones are H or OH. Bridge positions count the residues as written; N and C are the ends. Square brackets hold non-standard residues; d marks the D form. Peptide text beside a SMILES is read from it. * marks the point of attachment. Lys(Me,(CH2)4NMe(CH2)5CO) = CN(CCCCCC(=O)[*:3])CCCCN(C)CCCC[C@H](N[*:1])C(=O)[*:2]; Lys(Me,(CH2)4NMe(CH2)4CO) = CN(CCCCC(=O)[*:3])CCCCN(C)CCCC[C@H](N[*:1])C(=O)[*:2]; Trp(7-Me) = Cc1cccc2c(C[C@H](N)C(=O)O)c[nH]c12; Trp(1-Me) = Cn1cc(C[C@H](N)C(=O)O)c2ccccc21; NH(2-(3-pyridyl)ethyl) = c1cncc(CCN*)c1; αMeLys(Me2) = CN(C)CCCC[C@](C)(N)C(=O)O; 2Nal = N[C@@H](Cc1ccc2ccccc2c1)C(=O)O; 3Pal = N[C@@H](Cc1cccnc1)C(=O)O; Aun = NCCCCCCCCCCC(=O)O; Thp = NC1(C(=O)O)CCOCC1; Me2NCH2CH2 = CN(C)CC*; Aib = CC(C)(N)C(=O)O; Sar = CNCC(=O)O

Assays:
[1] = Protease stability in simulated intestinal fluids (FaSSIF) (Table 7); format: in vitro ADME; settings: fassif with pancreatin, 37° C.; for remaining at 1 h, 1 µM: 60 min, read-out: Remaining percentage of peptide compound, FaSSIF 60 (min); for remaining at 2 h, 1 µM: 120 min, read-out: Remaining percentage of peptide compound, FaSSIF 120 (min); for remaining at 4 h, 1 µM: 240 min, read-out: Remaining percentage of peptide compound, FaSSIF 240 (min)
Method: (§1) Studies were carried out in simulated intestinal fluid (SIF) and simulated gastric fluid (SGF) to evaluate gastric stability of the peptide compounds disclosed herein.
Similarly, the term “Pancreatin-SIF” refers to a solution of simulated intestinal fluid containing pancreatin whereas “SIF-media” refers to a solution of simulated intestinal fluid without pancreatin. Pancreatin-SIF was prepared by dissolving 1 mg Pancreatin (MP Biomedicals) in 10 mL SIF media concentrate (PROSENSE).
(§2) Peptide compounds were first dissolved at 1 mM stock concentration in 0.01 HCl (+/−10% of DMSO) and were than diluted further with water to a stock concentration of 20 μM. Final peptide concentration in the incubation was 1 μM.
(§3) To 76 μL of the Pepsin-SGF buffer, 4 μL of the 20 μM peptide stock solution was added and incubated at 37° C. At each timepoint (0, 60, 120 and 240 minutes) the reaction was quenched with addition of 80 μL Ethanol (0.1% HCOOH). The samples were centrifuged for 20 minutes and an aliquot of the supernatant 100 μL were transferred to a LoBind-MTP plate and analyzed by LCMS/MS. The peak area response was calculated at each time point for each test compound. As internal reference, the peak area response of the same test compound at T0 was calculated. The percentage remaining at each timepoint was calculated based on the peak area response ratio of the test compound at T0. Time 0 was set to 100%, and all later timepoints were calculated relative to time 0.

[2] = Solubility of peptide compounds in buffer formulations (Table 5); format: physicochemical; settings: target 1 mg/ml
Method: Prior to the solubility measurement of a peptide batch, its purity was determined through UHPLC/MS method A.
For solubility testing the target concentration was 1 mg pure compound/ml. Therefore, solutions from solid samples were prepared in a buffer system at a concentration of 1 mg/mL compound. The solid samples were obtained by drying down aliquots of a freshly prepared dimethyl sulfoxide stock solution using a THERMO SPEEDVAC vacuum centrifuge. The dry down time was 3 hours.
The following buffer systems were applied: • Solubility buffer system A) 50 mM HCl pH 1.2 • Solubility buffer system B) 50 mM phosphate buffer pH 6.5 • Solubility buffer system C) 50 mM phosphate buffer pH 7.4 • UHPLC-UV was performed using analytical method A after 2 hours of gentle agitation from the filtered (0.45 μm filter plates) solutions, which were obtained by 10 mins of centrifugation forced filtration at 1500 RCF (relative centrifugal acceleration).
The solubility was determined by the comparison of the UV peak area of 2 μL-injections of a buffered sample diluted 1:10 with a standard curve of a dimethyl sulfoxide reference sample of known concentration. The different extinction coefficients were taken into account for the calculation.

[3] = Protease stability in simulated gastric fluids (FaSSGF) (Table 7); format: in vitro ADME; settings: fassgf with pepsin, 60 min, 37° C., read-out: Remaining percentage of peptide compound, FaSSGF 60 (min)
Method: as §1
For clarification, the term “Pepsin-SGF” refers to a solution of simulated gastric fluid containing pepsin whereas “SGF media” refers to a solution of simulated gastric fluid without pepsin. Pepsin-SGF was prepared by dissolving 320 mg Pepsin (Merck Millipore) in 100 mL SGF media concentrate (PROSENSE).
as §2
as §3, with “(0,1%” for “(0.1%”
as §3

[4] = tested on: IL-23 induced STAT3 signaling (IL-23 receptor) in HEK-Blue IL-23 cells; assay: Inhibition of IL-23 induced STAT3 signaling in HEK-Blue IL-23 cells, SEAP reporter (Table 9); format: cell-based; settings: human IL23 0.25 ng/ml, overnight, read-out: Inhibition of IL-23 induced pSTAT3 (IC50 nM)
Excerpt: HEK-Blue™ IL-23 cells (INVIVOGEN) are designed for the detection of bioactive human (hIL-23) and murine IL-23 (mIL-23) by monitoring the activation of the STAT3 pathway. Binding of IL-23 to its receptor on the surface of HEK-Blue™ IL-23 cells triggers a signaling cascade leading to the activation of STAT3 and the subsequent production of secreted embryonic alkaline phosphatase (SEAP). This can be readily assessed using QUANTI-Blue™ Solution, a SEAP detection reagent.
HEK-Blue™ IL-23 cells were cultured as described by INVIVOGEN.
On the first day of assay 10 μL of the HEK-BLUE IL23 cell suspension (final concentration: 10,000 cells/well) and 10 μl of serially diluted peptides solutions were dispensed into a 384-well assay plate. After pre-incubation of the reaction mixtures at 37° C./5% CO2/95% humidity for 60 minutes, 10 μl of the humanIL23 cytokine (final concentration: 0.25 ng/ml) was added to each well for the STAT3 signaling activation. The plate was incubated overnight at 37° C./5% CO2/95% humidity.
On the second day 20 μl per well of QUANTI-BLUE detection solution (prepared according to the manufacture instruction) was dispensed into a new 384-well plate and followed by the transfer of 5 μl supernatant of the overnight incubated cell/sample mixtures. After incubation of 45 min at room temperature signals were measured with PHERASTAR (BMG) at OD 620-655 nm.
Dose response data were fitted with XLfit.

[5] = Buffer pH 1.1 (head; method: 50 mM HCl pH 1.2), 2 h agitation, read-out: Solubility, Buffer pH 1.1
[6] = aqueous buffer, 50 mM phosphate buffer pH 6.5, 2 h agitation, read-out: Solubility, Buffer pH 6.5
[7] = aqueous buffer, 50 mM phosphate buffer pH 7.4, 2 h agitation, read-out: Solubility, Buffer pH 7.4

CC(=O)NCCCC[C@@H]1NC(=O)[C@H](Cc2c[nH]c3c(C)cccc23)NC(=O)CCCCN(C)CCCCN(C)CCCC[C@@H](C(=O)N[C@@H](CC(N)=O)C(=O)N[C@@H](Cc2cccnc2)C(=O)N(C)CC(N)=O)NC(=O)[C@](C)(CCCCN(C)C)NC(=O)[C@H](Cc2ccc3ccccc3c2)NC(=O)[C@H](Cc2ccc(OCCN(C)C)cc2)NC(=O)C2(CCOCC2)NC1=O [compound 47] ([Trp(7-Me)]K(Ac)[Thp]Y(Me2NCH2CH2)[2Nal][αMeLys(Me2)][Lys(Me,(CH2)4NMe(CH2)4CO)]N[3Pal][Sar]-NH2; lactam N-7)
remaining at 1 h, 1 µM [1]: 97%
remaining at 2 h, 1 µM [1]: 91%
remaining at 4 h, 1 µM [1]: 91%
solubility at 2 h [2, 5]: ≥ 1200 µg/mL
solubility at 2 h [2, 6]: ≥ 1150 µg/mL
solubility at 2 h [2, 7]: ≥ 1170 µg/mL
remaining at 1 h, 1 µM [3]: 98%
IC50 [4]: 1.2 nM

Cc1cccc2c(C[C@@H]3NC(=O)CCCCCN(C)CCCCN(C)CCCC[C@@H](C(=O)NCC(=O)N[C@@H](Cc4cccnc4)C(=O)N(C)CC(N)=O)NC(=O)C(C)(C)NC(=O)[C@H](Cc4ccc5ccccc5c4)NC(=O)[C@H](Cc4ccc(OCCN(C)C)cc4)NC(=O)C4(CCOCC4)NC(=O)[C@H](CCC(N)=O)NC3=O)c[nH]c12 [compound 26] ([Trp(7-Me)]Q[Thp]Y(Me2NCH2CH2)[2Nal][Aib][Lys(Me,(CH2)4NMe(CH2)5CO)]G[3Pal][Sar]-NH2; lactam N-7)
remaining at 1 h, 1 µM [1]: 92%
remaining at 2 h, 1 µM [1]: 88%
remaining at 4 h, 1 µM [1]: 87%
solubility at 2 h [2, 5]: ≥ 1000 µg/mL
solubility at 2 h [2, 6]: ≥ 1010 µg/mL
solubility at 2 h [2, 7]: ≥ 890 µg/mL
remaining at 1 h, 1 µM [3]: 95%
IC50 [4]: 2.32 nM

CN(C)CCOc1ccc(C[C@@H]2NC(=O)C3(CCOCC3)NC(=O)[C@H](CCC(N)=O)NC(=O)[C@H](Cc3cn(C)c4ccccc34)NC(=O)CCCCN(C)CCCCN(C)CCCC[C@@H](C(=O)NCC(=O)NCCc3cccnc3)NC(=O)C(C)(C)NC(=O)[C@H](Cc3ccc4ccccc4c3)NC2=O)cc1 [compound 25] ([Trp(1-Me)]Q[Thp]Y(Me2NCH2CH2)[2Nal][Aib][Lys(Me,(CH2)4NMe(CH2)4CO)]G-{NH(2-(3-pyridyl)ethyl)}; lactam N-7)
remaining at 1 h, 1 µM [1]: 97%
remaining at 2 h, 1 µM [1]: 95%
remaining at 4 h, 1 µM [1]: 96%
solubility at 2 h [2, 5]: ≥ 950 µg/mL
solubility at 2 h [2, 6]: ≥ 890 µg/mL
solubility at 2 h [2, 7]: ≥ 860 µg/mL
remaining at 1 h, 1 µM [3]: 98%
IC50 [4]: 42.5 nM

CC(=O)NCCCC[C@@H]1NC(=O)[C@H](Cc2c[nH]c3c(C)cccc23)NC(=O)CCCCCCCCCCNC(=O)CC[C@@H](C(=O)N[C@@H](CC(N)=O)C(=O)N[C@@H](Cc2cccnc2)C(=O)N(C)CC(N)=O)NC(=O)[C@](C)(CCCCN(C)C)NC(=O)[C@H](Cc2ccc3ccccc3c2)NC(=O)[C@H](Cc2ccc(OCCN(C)C)cc2)NC(=O)C2(CCOCC2)NC1=O [compound 21] ([Aun][Trp(7-Me)]K(Ac)[Thp]Y(Me2NCH2CH2)[2Nal][αMeLys(Me2)]EN[3Pal][Sar]-NH2; lactam N-8)
remaining at 1 h, 1 µM [1]: 97%
remaining at 2 h, 1 µM [1]: 100%
remaining at 4 h, 1 µM [1]: 101%
solubility at 2 h [2, 5]: ≥ 1150 µg/mL
solubility at 2 h [2, 6]: ≥ 1170 µg/mL
solubility at 2 h [2, 7]: ≥ 1010 µg/mL
remaining at 1 h, 1 µM [3]: 91%
IC50 [4]: 0.27 nM

CC(=O)NCCCC[C@@H]1NC(=O)[C@H](Cc2c[nH]c3c(C)cccc23)NC(=O)CCCCCN(C)CCCCN(C)CCCC[C@@H](C(=O)NCC(=O)N[C@@H](Cc2cccnc2)C(=O)N(C)CC(N)=O)NC(=O)C(C)(C)NC(=O)[C@H](Cc2ccc3ccccc3c2)NC(=O)[C@H](Cc2ccc(OCCN(C)C)cc2)NC(=O)C2(CCOCC2)NC1=O [compound 27] ([Trp(7-Me)]K(Ac)[Thp]Y(Me2NCH2CH2)[2Nal][Aib][Lys(Me,(CH2)4NMe(CH2)5CO)]G[3Pal][Sar]-NH2; lactam N-7)
remaining at 1 h, 1 µM [1]: 97%
remaining at 2 h, 1 µM [1]: 94%
remaining at 4 h, 1 µM [1]: 94%
solubility at 2 h [2, 5]: ≥ 980 µg/mL
solubility at 2 h [2, 6]: ≥ 920 µg/mL
solubility at 2 h [2, 7]: ≥ 960 µg/mL
remaining at 1 h, 1 µM [3]: 100%
IC50 [4]: 3.12 nM

CC(=O)NCCCC[C@@H]1NC(=O)[C@H](Cc2c[nH]c3ccccc23)NC(=O)CCCCN(C)CCCCN(C)CCCC[C@@H](C(=O)N[C@@H](CO)C(=O)N[C@@H](Cc2cccnc2)C(=O)N(C)CC(N)=O)NC(=O)C(C)(C)NC(=O)[C@H](Cc2ccc3ccccc3c2)NC(=O)[C@H](Cc2ccc(OCCN(C)C)cc2)NC(=O)C2(CCOCC2)NC1=O [compound 42] (WK(Ac)[Thp]Y(Me2NCH2CH2)[2Nal][Aib][Lys(Me,(CH2)4NMe(CH2)4CO)]S[3Pal][Sar]-NH2; lactam N-7)
remaining at 1 h, 1 µM [1]: 59%
remaining at 2 h, 1 µM [1]: 42%
remaining at 4 h, 1 µM [1]: 23%
solubility at 2 h [2, 5]: ≥ 1010 µg/mL
solubility at 2 h [2, 6]: ≥ 1030 µg/mL
solubility at 2 h [2, 7]: ≥ 1040 µg/mL
remaining at 1 h, 1 µM [3]: 100%
IC50 [4]: 4.37 nM
